The kinase profiling compilation of Christmann-Franck et al. (2016)
One block for each molecule: values may come before it.

Key:
Assay in all cases: Caliper, Mobility shift assay off-chip
[1] = biological target: SGK1 (human) (UniProt O00141)
[2] = biological target: MAPK11 (human) (UniProt Q15759)
[3] = biological target: MAPKAPK5 (human) (UniProt Q8IW41)
[4] = biological target: RPS6KB1 (human) (UniProt P23443)
[5] = biological target: STK3 (human) (UniProt Q13188)
[6] = biological target: INSR (human) (UniProt P06213)
[7] = biological target: PRKCE (human) (UniProt Q02156)
[8] = biological target: CHEK2 (human) (UniProt O96017)
[9] = biological target: RPS6KA5 KD1 KD2 (human) (UniProt O75582)
[10] = biological target: PIM1 (human) (UniProt P11309)
[11] = biological target: MARK1 (human) (UniProt Q9P0L2)
[12] = biological target: AKT2 (human) (UniProt P31751)
[13] = system: ABL1 (human), P00519 [H396P]
[14] = biological target: AURKC (human) (UniProt Q9UQB9)
[15] = biological target: CAMK2D (human) (UniProt Q13557)
[16] = biological target: AURKB (human) (UniProt Q96GD4)
[17] = biological target: ABL1 (human) (UniProt P00519)
[18] = biological target: PRKACA (human) (UniProt P17612)
[19] = biological target: CAMK2G (human) (UniProt Q13555)
[20] = biological target: IRAK4 (human) (UniProt Q9NWZ3)
[21] = biological target: MAPK14 (human) (UniProt Q16539)
[22] = biological target: SYK (human) (UniProt P43405)
[23] = biological target: PRKD2 (human) (UniProt Q9BZL6)
[24] = biological target: BRSK1 (human) (UniProt Q8TDC3)
[25] = biological target: PDGFRA (human) (UniProt P16234)
[26] = biological target: RPS6KA2 KD1 KD2 (human) (UniProt Q15349)
[27] = biological target: PRKCZ (human) (UniProt Q05513)
[28] = biological target: MAPKAPK2 (human) (UniProt P49137)
[29] = biological target: PRKCQ (human) (UniProt Q04759)
[30] = biological target: PRKCB2 (human) (UniProt P05771)
[31] = biological target: CSNK1D (human) (UniProt P48730)
[32] = biological target: CAMK2B (human) (UniProt Q13554)
[33] = biological target: FER (human) (UniProt P16591)
[34] = biological target: MAPK3 (human) (UniProt P27361)
MAPK3 (human), sequence (P27361 whole entry, looked up): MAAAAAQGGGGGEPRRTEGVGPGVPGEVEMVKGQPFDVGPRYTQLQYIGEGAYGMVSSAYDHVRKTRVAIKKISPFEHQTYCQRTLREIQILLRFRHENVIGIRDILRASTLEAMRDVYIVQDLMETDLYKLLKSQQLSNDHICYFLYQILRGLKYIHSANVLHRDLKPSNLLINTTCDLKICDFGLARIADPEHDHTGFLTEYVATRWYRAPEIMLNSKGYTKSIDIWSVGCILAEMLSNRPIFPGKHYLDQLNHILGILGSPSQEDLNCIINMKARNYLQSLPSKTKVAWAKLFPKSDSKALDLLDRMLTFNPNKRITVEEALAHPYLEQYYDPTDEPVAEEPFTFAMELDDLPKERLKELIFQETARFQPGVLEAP

STK3 (human), sequence (Q13188 whole entry, looked up): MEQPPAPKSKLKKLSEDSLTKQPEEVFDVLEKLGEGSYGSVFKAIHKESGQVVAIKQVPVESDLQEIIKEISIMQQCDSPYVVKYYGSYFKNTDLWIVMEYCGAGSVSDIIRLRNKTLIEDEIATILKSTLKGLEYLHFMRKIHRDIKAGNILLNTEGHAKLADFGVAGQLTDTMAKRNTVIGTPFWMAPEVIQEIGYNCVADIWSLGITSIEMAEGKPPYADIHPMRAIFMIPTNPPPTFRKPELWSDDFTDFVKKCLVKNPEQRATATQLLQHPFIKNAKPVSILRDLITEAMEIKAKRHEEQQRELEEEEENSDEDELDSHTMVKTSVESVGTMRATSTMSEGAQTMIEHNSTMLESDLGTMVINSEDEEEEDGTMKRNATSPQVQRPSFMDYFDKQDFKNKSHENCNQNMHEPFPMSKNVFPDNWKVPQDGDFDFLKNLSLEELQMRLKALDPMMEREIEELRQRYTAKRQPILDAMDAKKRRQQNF
PIM1 (human), sequence (P11309 whole entry, looked up): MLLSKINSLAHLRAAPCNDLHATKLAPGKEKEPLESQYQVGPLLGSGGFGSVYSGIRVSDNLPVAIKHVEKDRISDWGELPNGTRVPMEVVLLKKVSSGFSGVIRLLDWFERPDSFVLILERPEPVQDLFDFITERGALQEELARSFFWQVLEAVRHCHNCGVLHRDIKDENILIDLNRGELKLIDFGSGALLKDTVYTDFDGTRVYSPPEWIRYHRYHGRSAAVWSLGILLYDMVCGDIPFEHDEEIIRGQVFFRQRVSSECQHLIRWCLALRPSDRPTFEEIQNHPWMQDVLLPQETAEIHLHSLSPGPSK
PRKCB2 (human), sequence (P05771 whole entry, looked up): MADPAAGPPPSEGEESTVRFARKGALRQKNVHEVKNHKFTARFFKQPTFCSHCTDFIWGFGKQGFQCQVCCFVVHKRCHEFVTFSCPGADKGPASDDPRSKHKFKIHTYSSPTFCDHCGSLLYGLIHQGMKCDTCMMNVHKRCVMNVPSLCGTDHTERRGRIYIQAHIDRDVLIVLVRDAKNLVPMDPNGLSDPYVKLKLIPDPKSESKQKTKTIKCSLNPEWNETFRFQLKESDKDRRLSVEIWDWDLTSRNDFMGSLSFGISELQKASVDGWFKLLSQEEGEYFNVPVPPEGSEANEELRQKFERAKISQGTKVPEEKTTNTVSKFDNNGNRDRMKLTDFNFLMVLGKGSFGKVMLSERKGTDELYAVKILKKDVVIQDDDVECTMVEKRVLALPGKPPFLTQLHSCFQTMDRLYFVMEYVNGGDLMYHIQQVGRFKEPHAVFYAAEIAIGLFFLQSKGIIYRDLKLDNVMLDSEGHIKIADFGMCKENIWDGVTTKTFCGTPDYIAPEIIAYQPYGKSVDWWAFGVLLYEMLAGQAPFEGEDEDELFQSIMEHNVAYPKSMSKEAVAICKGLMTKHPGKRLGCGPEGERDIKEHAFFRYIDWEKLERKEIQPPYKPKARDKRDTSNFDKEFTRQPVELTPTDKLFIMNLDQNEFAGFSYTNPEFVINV
PRKD2 (human), sequence (Q9BZL6 whole entry, looked up): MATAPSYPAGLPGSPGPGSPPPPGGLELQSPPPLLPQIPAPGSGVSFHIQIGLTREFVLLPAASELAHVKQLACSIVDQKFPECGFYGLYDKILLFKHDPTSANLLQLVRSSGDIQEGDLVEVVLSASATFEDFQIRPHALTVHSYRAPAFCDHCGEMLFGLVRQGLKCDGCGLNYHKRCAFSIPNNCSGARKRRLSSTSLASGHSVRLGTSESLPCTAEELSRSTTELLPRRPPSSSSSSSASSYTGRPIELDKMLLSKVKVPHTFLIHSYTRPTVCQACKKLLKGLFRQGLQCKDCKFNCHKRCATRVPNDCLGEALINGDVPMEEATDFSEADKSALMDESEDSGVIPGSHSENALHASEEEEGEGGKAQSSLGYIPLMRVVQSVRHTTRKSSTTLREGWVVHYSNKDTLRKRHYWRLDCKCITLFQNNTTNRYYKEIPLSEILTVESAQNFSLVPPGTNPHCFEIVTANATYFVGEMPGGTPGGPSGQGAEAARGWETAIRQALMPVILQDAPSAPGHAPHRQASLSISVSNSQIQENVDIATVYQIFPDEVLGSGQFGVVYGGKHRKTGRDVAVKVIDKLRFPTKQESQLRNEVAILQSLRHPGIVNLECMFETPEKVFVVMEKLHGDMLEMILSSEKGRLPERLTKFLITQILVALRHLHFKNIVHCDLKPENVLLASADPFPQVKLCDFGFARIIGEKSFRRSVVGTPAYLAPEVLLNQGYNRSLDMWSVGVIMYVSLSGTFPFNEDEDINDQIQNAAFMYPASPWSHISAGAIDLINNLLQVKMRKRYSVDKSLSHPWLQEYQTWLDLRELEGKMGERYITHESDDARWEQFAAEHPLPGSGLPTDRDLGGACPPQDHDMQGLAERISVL
INSR (human), sequence (P06213 whole entry, looked up): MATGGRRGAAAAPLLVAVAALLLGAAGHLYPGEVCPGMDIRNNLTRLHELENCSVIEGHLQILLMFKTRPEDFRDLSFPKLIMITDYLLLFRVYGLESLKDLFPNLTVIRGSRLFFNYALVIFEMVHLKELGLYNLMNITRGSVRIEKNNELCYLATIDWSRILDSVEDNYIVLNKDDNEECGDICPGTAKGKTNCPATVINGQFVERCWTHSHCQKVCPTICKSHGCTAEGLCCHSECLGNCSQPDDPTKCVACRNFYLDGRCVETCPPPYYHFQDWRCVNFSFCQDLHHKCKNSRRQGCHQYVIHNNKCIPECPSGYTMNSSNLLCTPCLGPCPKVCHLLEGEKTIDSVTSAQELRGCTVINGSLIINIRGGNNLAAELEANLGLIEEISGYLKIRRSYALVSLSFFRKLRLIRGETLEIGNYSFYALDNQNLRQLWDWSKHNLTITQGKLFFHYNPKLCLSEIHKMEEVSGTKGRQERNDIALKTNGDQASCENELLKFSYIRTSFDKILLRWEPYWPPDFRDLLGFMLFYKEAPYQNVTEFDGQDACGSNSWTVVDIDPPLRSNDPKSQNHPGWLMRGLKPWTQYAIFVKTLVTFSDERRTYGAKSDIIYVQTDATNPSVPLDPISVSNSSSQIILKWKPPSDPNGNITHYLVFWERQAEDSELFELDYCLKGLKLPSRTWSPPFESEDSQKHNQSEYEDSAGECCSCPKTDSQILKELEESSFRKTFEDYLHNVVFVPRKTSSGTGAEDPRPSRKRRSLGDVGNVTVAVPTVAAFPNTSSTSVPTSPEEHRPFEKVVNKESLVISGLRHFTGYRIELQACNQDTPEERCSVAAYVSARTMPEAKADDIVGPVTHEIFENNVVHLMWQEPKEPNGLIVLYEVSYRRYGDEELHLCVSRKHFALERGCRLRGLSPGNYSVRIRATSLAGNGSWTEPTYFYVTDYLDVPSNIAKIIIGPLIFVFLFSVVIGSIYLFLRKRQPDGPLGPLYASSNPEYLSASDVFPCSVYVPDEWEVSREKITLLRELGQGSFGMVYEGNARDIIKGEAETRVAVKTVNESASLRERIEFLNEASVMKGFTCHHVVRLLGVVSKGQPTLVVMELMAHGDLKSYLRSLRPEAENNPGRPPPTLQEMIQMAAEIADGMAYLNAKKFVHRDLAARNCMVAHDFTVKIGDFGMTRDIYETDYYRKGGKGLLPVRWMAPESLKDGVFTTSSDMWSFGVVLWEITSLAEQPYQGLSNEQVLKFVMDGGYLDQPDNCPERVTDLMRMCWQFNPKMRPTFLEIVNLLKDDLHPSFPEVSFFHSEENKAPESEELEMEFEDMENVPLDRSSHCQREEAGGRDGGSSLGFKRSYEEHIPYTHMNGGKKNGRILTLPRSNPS
MAPKAPK2 (human), sequence (P49137 whole entry, looked up): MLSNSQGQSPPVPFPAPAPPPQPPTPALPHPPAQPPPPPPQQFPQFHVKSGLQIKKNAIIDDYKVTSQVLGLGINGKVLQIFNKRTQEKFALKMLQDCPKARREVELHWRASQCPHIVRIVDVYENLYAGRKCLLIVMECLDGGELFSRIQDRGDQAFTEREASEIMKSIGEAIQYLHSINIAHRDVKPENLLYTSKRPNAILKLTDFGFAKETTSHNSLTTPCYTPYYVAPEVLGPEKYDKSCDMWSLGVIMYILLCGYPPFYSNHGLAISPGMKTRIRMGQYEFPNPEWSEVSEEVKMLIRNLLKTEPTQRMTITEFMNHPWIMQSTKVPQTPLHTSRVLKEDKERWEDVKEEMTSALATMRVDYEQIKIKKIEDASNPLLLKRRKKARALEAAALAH
CAMK2D (human), sequence (Q13557 whole entry, looked up): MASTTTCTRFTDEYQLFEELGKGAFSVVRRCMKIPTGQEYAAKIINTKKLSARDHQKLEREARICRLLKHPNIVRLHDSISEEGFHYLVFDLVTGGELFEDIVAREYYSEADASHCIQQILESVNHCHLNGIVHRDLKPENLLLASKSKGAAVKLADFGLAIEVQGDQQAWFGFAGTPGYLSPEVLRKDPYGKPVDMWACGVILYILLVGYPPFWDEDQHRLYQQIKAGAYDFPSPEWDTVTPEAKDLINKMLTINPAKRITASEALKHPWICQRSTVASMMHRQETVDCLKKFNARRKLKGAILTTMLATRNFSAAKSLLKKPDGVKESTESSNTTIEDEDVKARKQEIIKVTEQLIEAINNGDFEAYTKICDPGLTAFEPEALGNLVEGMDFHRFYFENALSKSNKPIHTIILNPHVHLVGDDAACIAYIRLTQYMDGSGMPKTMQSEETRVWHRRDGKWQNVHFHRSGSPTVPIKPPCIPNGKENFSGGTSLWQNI

inhibition ([1]; compound 0.1 µM): 6.8% | inhibition ([1]; compound 1.0 µM): 11.5% | inhibition ([2]; compound 0.1 µM): -1.8% | inhibition ([2]; compound 1.0 µM): -4.1% | inhibition ([3]; compound 0.1 µM): 1.3% | inhibition ([3]; compound 1.0 µM): -7.9% | inhibition ([4]; compound 0.1 µM): 10% | inhibition ([4]; compound 1.0 µM): 13.5% | inhibition ([5]; compound 0.1 µM): 4.4% | inhibition ([5]; compound 1.0 µM): 7.9% | inhibition ([6]; compound 0.1 µM): 12% | inhibition ([6]; compound 1.0 µM): 6.4% | inhibition ([7]; compound 0.1 µM): -4.6% | inhibition ([7]; compound 1.0 µM): 5.9% | inhibition ([8]; compound 0.1 µM): -3.5% | inhibition ([8]; compound 1.0 µM): 0.7% | inhibition ([9]; compound 0.1 µM): 8% | inhibition ([9]; compound 1.0 µM): 4.1% | inhibition ([10]; compound 0.1 µM): -4.1% | inhibition ([10]; compound 1.0 µM): 3.7% | inhibition ([11]; compound 0.1 µM): 16.5% | inhibition ([11]; compound 1.0 µM): 81.8% | inhibition ([12]; compound 0.1 µM): 1.7% | inhibition ([12]; compound 1.0 µM): 7.1% | inhibition ([13]; compound 0.1 µM): -0.9% | inhibition ([13]; compound 1.0 µM): 9.4% | inhibition ([14]; compound 0.1 µM): 27.7% | inhibition ([14]; compound 1.0 µM): 76.2% | inhibition ([15]; compound 0.1 µM): 4.9% | inhibition ([15]; compound 1.0 µM): 25.1% | inhibition ([16]; compound 0.1 µM): 41.7% | inhibition ([16]; compound 1.0 µM): 75% | inhibition ([17]; compound 0.1 µM): 6.9% | inhibition ([17]; compound 1.0 µM): 22.9% | inhibition ([18]; compound 0.1 µM): -5.5% | inhibition ([18]; compound 1.0 µM): -1.1% | inhibition ([19]; compound 0.1 µM): -17.9% | inhibition ([19]; compound 1.0 µM): -1.6% | inhibition ([20]; compound 0.1 µM): 6% | inhibition ([20]; compound 1.0 µM): -8.2% | inhibition ([21]; compound 0.1 µM): -13.9% | inhibition ([21]; compound 1.0 µM): 6.9% | inhibition ([22]; compound 0.1 µM): 1.9% | inhibition ([22]; compound 1.0 µM): 7.6% | inhibition ([23]; compound 0.1 µM): 7.3% | inhibition ([23]; compound 1.0 µM): -2.6% | inhibition ([24]; compound 0.1 µM): 5.6% | inhibition ([24]; compound 1.0 µM): 12.5% | inhibition ([25]; compound 0.1 µM): -19.1% | inhibition ([25]; compound 1.0 µM): 15.5% | inhibition ([26]; compound 0.1 µM): -0.2% | inhibition ([26]; compound 1.0 µM): 9% | inhibition ([27]; compound 0.1 µM): -6.7% | inhibition ([27]; compound 1.0 µM): 1% | inhibition ([28]; compound 0.1 µM): -2.6% | inhibition ([28]; compound 1.0 µM): 8% | inhibition ([29]; compound 0.1 µM): 5.2% | inhibition ([30]; compound 0.1 µM): 2.6% | inhibition ([30]; compound 1.0 µM): -6% | inhibition ([31]; compound 0.1 µM): 7.6% | inhibition ([31]; compound 1.0 µM): 11.1% | inhibition ([32]; compound 0.1 µM): -21.3% | inhibition ([32]; compound 1.0 µM): -19.3% | inhibition ([33]; compound 0.1 µM): -53.2% | inhibition ([33]; compound 1.0 µM): -24.2% | inhibition ([34]; compound 0.1 µM): -0.7% | inhibition ([34]; compound 1.0 µM): 3.6%
SMILES: Cn1cc(-c2cnc3ccc4ccc(CS(N)(=O)=O)cc4c(=O)c3c2)cn1

inhibition ([1]; compound 0.01 µM): -3.6% | inhibition ([1]; compound 0.1 µM): -31.9% | inhibition ([2]; compound 0.01 µM): -1.5% | inhibition ([2]; compound 0.1 µM): 0.7% | inhibition ([3]; compound 0.01 µM): -4.7% | inhibition ([3]; compound 0.1 µM): 1.6% | inhibition ([4]; compound 0.01 µM): 6.8% | inhibition ([4]; compound 0.1 µM): -1.3% | inhibition ([5]; compound 0.01 µM): 1.5% | inhibition ([5]; compound 0.1 µM): 0.6% | inhibition ([6]; compound 0.01 µM): -1.4% | inhibition ([6]; compound 0.1 µM): -2.5% | inhibition ([7]; compound 0.01 µM): 1.3% | inhibition ([7]; compound 0.1 µM): -2% | inhibition ([8]; compound 0.01 µM): -5.2% | inhibition ([8]; compound 0.1 µM): -5.1% | inhibition ([9]; compound 0.01 µM): -5.1% | inhibition ([9]; compound 0.1 µM): -2.9% | inhibition ([10]; compound 0.01 µM): -4.8% | inhibition ([10]; compound 0.1 µM): -6.2% | inhibition ([11]; compound 0.01 µM): -0.1% | inhibition ([11]; compound 0.1 µM): -2.9% | inhibition ([12]; compound 0.01 µM): -0.2% | inhibition ([12]; compound 0.1 µM): -1.6% | inhibition ([13]; compound 0.01 µM): 4.8% | inhibition ([13]; compound 0.1 µM): -2.5% | inhibition ([14]; compound 0.01 µM): -15.8% | inhibition ([14]; compound 0.1 µM): 5.6% | inhibition ([15]; compound 0.01 µM): 1.7% | inhibition ([15]; compound 0.1 µM): 13.2% | inhibition ([16]; compound 0.01 µM): 3.2% | inhibition ([16]; compound 0.1 µM): 17% | inhibition ([17]; compound 0.01 µM): -1.8% | inhibition ([17]; compound 0.1 µM): 5.5% | inhibition ([18]; compound 0.01 µM): 3.2% | inhibition ([18]; compound 0.1 µM): 0.4% | inhibition ([19]; compound 0.01 µM): 6.3% | inhibition ([19]; compound 0.1 µM): 2.1% | inhibition ([20]; compound 0.01 µM): 19.1% | inhibition ([20]; compound 0.1 µM): -1.2% | inhibition ([21]; compound 0.01 µM): -1.2% | inhibition ([21]; compound 0.1 µM): -6.5% | inhibition ([22]; compound 0.01 µM): -4.6% | inhibition ([22]; compound 0.1 µM): 6.2% | inhibition ([23]; compound 0.01 µM): -6.3% | inhibition ([23]; compound 0.1 µM): -5.2% | inhibition ([24]; compound 0.01 µM): 9.9% | inhibition ([24]; compound 0.1 µM): -7.5% | inhibition ([25]; compound 0.01 µM): -15.7% | inhibition ([25]; compound 0.1 µM): 4.1% | inhibition ([26]; compound 0.01 µM): -8.9% | inhibition ([26]; compound 0.1 µM): 2% | inhibition ([27]; compound 0.01 µM): -0.3% | inhibition ([27]; compound 0.1 µM): 4.6% | inhibition ([28]; compound 0.01 µM): 0.4% | inhibition ([28]; compound 0.1 µM): -1.9% | inhibition ([29]; compound 0.01 µM): 3.4% | inhibition ([29]; compound 0.1 µM): -3.8% | inhibition ([30]; compound 0.01 µM): 14.8% | inhibition ([30]; compound 0.1 µM): 6% | inhibition ([31]; compound 0.01 µM): 2% | inhibition ([31]; compound 0.1 µM): -2.8% | inhibition ([32]; compound 0.01 µM): 79.2% | inhibition ([32]; compound 0.1 µM): -4.6% | inhibition ([33]; compound 0.01 µM): -6.3% | inhibition ([33]; compound 0.1 µM): 0.8% | inhibition ([34]; compound 0.01 µM): -1% | inhibition ([34]; compound 0.1 µM): 1.7%
SMILES: O=c1c2cc(CS(=O)(=O)NCc3ccccn3)ccc2ccc2ncc(C3CCNCC3)cc12
